Measurements from patent US20230013402A1, “REGENERATING FUNCTIONS AND PHENOTYPES OF CONNECTIVE TISSUE THROUGH NPAS2 SUPPRESSION” (The Regents of the University of California, priority 2019, published 2023).
“Also recorded” adds a separate entry of the source.

Columns and labels:
[1] = tested on: human skin fibroblasts; assay: High-throughput cell migration assay (Oris Pro Cell Migration Assay plate) / standardized viability; type: cell-based; settings: Table 1; HTS of FDA Drug Library
Description: Mouse MSC carrying Npas2-LacZ reporter gene, as described by Hassan N, et al., PLoS One. 2017; 12(8):e0183359, which is incorporated by reference herein in its entirety, was immortalized using SV40 in order to accommodate a large-scale HTS. […] This cell system was used to screen FDA Approved Drug Library (1120 compounds). The same library was also screened for cell viability by Calcein AM Hoechst 33342 staining Cell migration assays using the Oris™ Pro Cell Migration Assay plate, as described by Joy M E et al., PloS one. 2014; 9(2):e88350, which is incorporated by reference herein in its entirety, was used for a high-throughput migration assay using human skin fibroblasts
The combined Z score was used to identify hit compounds (Table 1).

[2] = tested on: Npas2-LacZ expression; assay: Titration assay: effective concentration by LacZ expression in MSC Npas2-LacZ; type: cell-based, mouse; settings: serial dilution 100 μM to 0.2 nM
Experimental: Dwn1 was serially diluted from 100 μM to 0.2 nM and applied to MSC Npas2-LacZ. Effective concentration (EC) was determined by LacZ expression and inhibitory concentration (IC) was determined by cell viability using Calcein AM/Hoechst 33342 staining DwnC and Dwn1 are both Reserpine.
Dwn1 was identical to the previously identified DwnC compound from the LOPAC library. Dwn1 compound (Reserpine) was selected for serial dilution analysis. […] Dwn1 was used for preliminary in vitro and in vivo studies described below. Additional compounds suppressing Npas2 were identified (Table 2).
Dwn1 was serially diluted from 100 μM to 0.2 nM and applied to MSC Npas2-LacZ. EC was determined by LacZ expression and IC was determined by cell viability using Calcein AM/Hoechst 33342 staining.

[3] = tested on: fibroblasts; assay: In vitro wound healing: scratch fibroblast migration and collagen gel contraction; type: cell-based, mouse; settings: listed as Dwn1
Experimental: The in vitro wound healing ability of Dwn1 was tested using a previously described method.
Fibroblasts were seeded into a 6-well plate and were synchronized as above. After 2 hr, scratch lines were created with a 20 μL plastic pipette and were washed with medium (n=5 per group). These scratched areas were captured by time-lapse photomicrography every hour from 0 to 24 hr. The number of migrated cells into the scratched area was counted at 12 and 24 hr and compared by one-way ANOVA with post hoc Holm test.
The floating collagen gel contraction assay was performed following the previously established protocol with some modifications (Ngo et al., 2006). A 500 μL aliquot of collagen gel mixture (Collagen Type I, Corning, Manassas, Va.) containing fibroblasts (50,000 cells) was applied to a 24-well plate (n=5 in each group) and placed at room temperature for 20 min. The solidified gels were transferred to a 100 mm diameter dish and cultured (37_C, 5% CO2 in a humidified incubator). The gel images were scanned by a scanner at 0, 6, 12, 24, 48, and 72 hr. The collagen gel area at each time point was measured (NIH ImageJ ver.1.51) and compared by two-way ANOVA, followed by the Tukey test at each time point.
As described herein, a small molecule inhibitor of Neuronal PAS domain 2 (Npas2), Dwn1, improves wound healing and minimizes scarring.

[4] = tested on: skin split wound; assay: Skin split (linear) wound/scar model with suture; type: in vivo, mouse; settings: Dwn1 in 10% DMSO with suture vs suture only and suture plus vehicle
Description: To test in vivo wound healing using Dwn1, a 1.5 by 10 millimeter skin split model was created with a suture in the middle and three groups were designed. This model is similar to a clinical situation of a skin wound. When the skin was sutured only, visible wound healing was not effective. A suture and vehicle control with 10% DMSO, in the clinical observation, wound healing was visibly better than suture only. It is hypothesized that the moisture of vehicle may improve wound healing.
Masson trichrome staining was used to stain collagen deposition blue. Thick blue collagen deposition was found not only in granulation tissue but also in the peripheral wound. The histological staining for the vehicle control with 10% DMSO, was similar to control. Thick collagen deposition was observed.
Vertical wounds (10×1.5 mm) were made on both left and right sides of the back of a mouse with a double-bladed scalpel. One ligation was performed at the center of the wound with 5-0 nylon suture. (FIG. 33A) Visual Analogue Scale (VAS) was scored everyday postoperatively until postoperative day 7 using gross images of the wounds/scars (FIG. 33A), and postoperative gross images of the wounds/scars were measured with a ruler. […] (FIG. 33D) Scar Index was evaluated using HE stained slices. (FIG. 33E) The % area of fibrous tissue was evaluated using MT stained slices. […]

[5] = tested on: murine dermal fibroblasts; assay: Collagen synthesis by picrosirius red staining; type: cell-based, mouse; settings: day 7; 1 μM or 10 μM; vs control and 50 μg AA
Experimental: The effects of two different concentrations of Dwn1 (1 μM or 10 μM) on collagen synthesis in murine dermal fibroblast in vitro were examined Murine dermal fibroblasts were seeded into 24-well plates and cultured at 80%-90% confluency in medium supplemented with ascorbic acid (50 μg/mL) for 1, 3, and 7 days. The cells were then fixed with 10% neutral buffered formalin and stained with Picrosirius red (PolyScience, Niles, Ill.) for visualizing the collagen. AA: 1-ascorbic acid. OD: optical density. CTRL: cell treated with control medium without AA. […] (FIG. 35A) The absorption value was read in a spectrophotometer at 550 nm with a plate reader ([…] H1 plate reader) and compared by one-way ANOVA with the post hoc Holm test.

[6] = tested on: bone marrow stromal cells (BMSC); assay: In vitro mineralization / osteogenic differentiation of BMSC (MSC) in osteogenic medium; type: cell-based, mouse
Description: FIGS. 7A-7B show the effect of Reserpine on bone marrow stromal cells osteogenic differentiation. […] Bars: Tukey analysis with p<0.05. […] The expression values were normalized with day 0 RNA.
FIGS. 11A-11D(b) show results of in vitro biological assays of Npas2 suppressing compound Dwn1 (Reserpine).
Reserpine was selected and its effect on bone marrow stromal cells (BMSC) was characterized for osteogenic differentiation.
To evaluate the mechanism of action involving Npas2, Reserpine was applied to WT, Npas2+/− and Npas2−/− mouse BMSC and evaluated for in vitro osteogenic differentiation.
The small molecule compound that scored the best combined z score in Example 2, Dwn1 (Reserpine) was selected for in vitro biological assays. […] BMP-2 has been used as a gold standard for accelerated osteogenic differentiation of MSC (48, 49). […] The expression of core clock gene Bmal1 was not affected by Dwn1 (FIG. 11C). Dwn1 increased in vitro mineralization of Npas2+/− MSC, but not of Npas2−/− MSC (FIG. 11D), implying that the effect of Dwn1 (Reserpine) was facilitated primarily by Npas2 suppression.

COC(=O)[C@H]1[C@H]2C[C@@H]3c4[nH]c5cc(OC)ccc5c4CCN3C[C@H]2C[C@@H](OC(=O)c2cc(OC)c(OC)c(OC)c2)[C@@H]1OC [Reserpine]
Migration (standardized viability) Z Score [1]: 4.19
Effective concentration (EC) [2]: 0.5 to 10 µM
Collagen gel contraction [3]: accelerates
Fibroblast migration in scratch wound healing assay [3]: accelerates
Collagen deposition (Masson trichrome staining) [4]: decreased excessive collage deposition; also recorded: very small area of collagen deposition
Split wound healing / scarring [4]: improved split wound healing with minimal scarring; also recorded: best wound healing
Picrosirius red staining (collagen fiber formation and accumulation) [5]: increase of a positive reaction
In vitro mineralization compared with BMP-2 supplementation ([6]; Dwn1 1 μM vs BMP-2 100 ng/ml): equivalent to BMP-2 (100 ng/ml) supplementation
In vitro mineralization / osteogenic differentiation ([6]; Npas2+/− BMSC/MSC): reproducibly observed
In vitro mineralization / osteogenic differentiation ([6]; Npas2+/− BMSC/MSC, listed as Dwn1): responded; also recorded: increased
In vitro mineralization / osteogenic differentiation ([6]; Npas2−/− BMSC/MSC): did not modulate
In vitro mineralization / osteogenic differentiation ([6]; wild type BMSC/MSC, osteogenic medium, alizarin red): increased alizarin red positive in vitro mineralization; also recorded: dose-dependently accelerated in vitro mineralization; also recorded: reproducibly observed
In vitro mineralization / osteogenic differentiation ([6]; wild type BMSC/MSC, osteogenic medium, alizarin red, listed as Dwn1): increased dose-dependently; also recorded: dose dependently increased; also recorded: dose-dependently increased
